Laboratory results reported in patent US20220202912A1, “Polypeptides in Preparation of Drugs for Treatment or Prevention of Rheumatoid Arthritis” (priority 2011, published 2022).
Where no end group is shown, it is not given here.

Legend:
TNF-α [1] = test: immunohistochemistry of TNF-α in ankle joints, AIA transgenic TNF-luc mice; assay type: in vivo, BALB/c transgenic TNF-luc mice; settings: Adalimumab 8 mg/kg, mPEG-SC20k-HM-3 20 mg/kg
Protocol: Changes of expression of TNF-α and IL-6 are analyzed by HE staining and immunohistochemistry in the ankle joint, spleen and thymus of the mice. Observation and photographing are performed under the FOVs of ×200 and ×400 times respectively, 5 FOVs are taken randomly for each picture, and data statistics is performed.

[2] = test system: macrophages (PMA-induced U937 cells); test: flow cytometry macrophage apoptosis test (AV-FITC/PI); assay type: cell-based, Human; settings: 24 h; Adalimumab 50 μg/mL, mPEG-SC20k-HM-3 13.5 μmol/L
Protocol: Human U937 cells are added to a 6-well plate (1.5×10^5 cells/mL), PMA (25 ng/mL) is added to perform induction for 48 h for differentiation into macrophages, and the macrophages are added to the positive drug Adalimumab group (50 μg/mL), the HM-3 control group (13.5 μmol/L), the mPEG-SC20k-HM-3 group (13.5 μmol/L), isovolumetric PBS is added to the blank group and the model group, and the cells are incubated in a CO2 incubator at 37° C. for 24 h. For the H2O2 group (3%, 20 μL/mL volume) test, hydrogen peroxide is added in the first half hour to normal cells for apoptosis induction control.
1000 g of solution is centrifuged for 5 min, and supernatant is discarded. Washing is performed once with PBS.
The apoptosis is tested on the flow cytometer according to the instructions of the AV-FITC/PI apoptosis kit.

TNF-α [3] = test: in vivo imaging of TNF-α expression, CIA transgenic TNF-luc mice; parameters: species or system BALB/c transgenic TNF-luc mice; settings: day 36; Adalimumab 8 mg/kg, mPEG-SC20k-HM-3 20 mg/kg
Protocol: […] After the mice are lightly anesthetized with ether, the mice are fixed within 5-20 min and put into an in vivo imager, the imager is covered with an instrument lid, on-fluro and om-photo names in the desktop imaging interface of the computer are clicked, and the expose button is clicked to complete the fluorescence and white light photos of mice in vivo imaging. The specific imaging principle, operation steps, image processing and output are the same as those in the previous embodiment.

IL-6 = test: immunohistochemistry of IL-6 in spleen and thymus, CIA transgenic TNF-luc mice; assay type: in vivo, BALB/c transgenic TNF-luc mice; settings: Adalimumab 8 mg/kg, mPEG-SC20k-HM-3 20 mg/kg
Protocol: Determining criteria: The experimental results are determined based on the proportion of positive cells in all tissue cells and the staining intensity of positive cells: A: scoring is performed based on the number of chromogenic cells, 1 point is given when the proportion of the number of positive cells is less than ⅓, 2 points are given when the proportion of the number of positive cells is ⅓-⅔, and 3 points are given when the proportion of the number of positive cells is greater than or equal to ⅔. B: Based on the color depth of cells, 0 point is given when no cells have positive reaction, 1 point is given when cells are light yellow, 2 points are given when the cells are light brown, and 3 points are given when the cells are dark brown. Point product=A×B. The result is expressed in point product.

Row | Substance | immunohistochemical score of TNF-α in ankle joint cavity (TNF-α [1]) | rate of early apoptosis of macrophages [2] | rate of late apoptosis of macrophages [2] | in vivo fluorescence densities (TNF-α [3]) | immunohistochemical score of IL-6 in spleen (IL-6) | immunohistochemical score of IL-6 in thymus (IL-6)
1 | Adalimumab [reference compound] | 0.246±0.110 | 14.2% | 15.2% | 20.76±4.43 10^5 | 0.008±0.003 | 0.030±0.031
2 | mPEG-SC20k-Ile-Val-Arg-Arg-Ala-Asp-Arg-Ala-Ala-Val-Pro-Gly-Gly-Gly-Gly-Arg-Gly-Asp ({mPEG‑SC 20k}-IVRRADRAAVPGGGGRGD) [polypeptide III, No. 3] | 0.149±0.047 | 28.0% | 14.7% | 19.02±9.69 10^5 | 0.017±0.009 | 0.040±0.021
